Results on ten compounds are retold here after ChEMBL document CHEMBL6109180, “De Novo-Designed APC/C Inhibitors Provide a Rationale for Targeting RING-Type E3 Ubiquitin Ligases” (J Med Chem, 2025).

Data set [1] addresses Breast cancer type 1 susceptibility protein (Homo sapiens) (UniProt P38398). In words: Binding affinity to BRCA1 in asynchronously growing human HeLa cells incubated for 30 mins by pull down assay. It is filed as cell-based.
In data set [2] the target is E3 ubiquitin-protein ligase CBL (Homo sapiens) (UniProt P22681). In words: Binding affinity to c-CBL in asynchronously growing human HeLa cells incubated for 30 mins by pull down assay. Format: cell-based.
In data set [3] the target is E3 ubiquitin-protein ligase Mdm2 (Homo sapiens) (UniProt Q00987). Kind of data set: Binding affinity to MDM2 in asynchronously growing human HeLa cells incubated for 30 mins by pull down assay. It is filed as cell-based.
Data set [4] has as its target Anaphase-promoting complex subunit 11 (Homo sapiens) (UniProt Q9NYG5). In words: Binding affinity to APC11 in asynchronously growing human HeLa cells incubated for 30 mins by pull down assay. It is filed as cell-based.
For data set [5], the target named is T1, Polycomb complex protein BMI-1 (Homo sapiens) (UniProt P35226).
T1 sequence (whole entry): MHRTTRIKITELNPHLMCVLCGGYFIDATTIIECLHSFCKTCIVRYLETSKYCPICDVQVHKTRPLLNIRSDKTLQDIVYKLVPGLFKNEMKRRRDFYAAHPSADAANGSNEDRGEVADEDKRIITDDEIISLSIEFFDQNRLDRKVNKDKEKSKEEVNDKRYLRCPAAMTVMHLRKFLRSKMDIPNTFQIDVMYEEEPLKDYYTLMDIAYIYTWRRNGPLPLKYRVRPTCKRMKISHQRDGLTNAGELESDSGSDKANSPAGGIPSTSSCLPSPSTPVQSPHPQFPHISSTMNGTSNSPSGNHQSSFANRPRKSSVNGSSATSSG
In words: Binding affinity to BMI1 in asynchronously growing human HeLa cells incubated for 30 mins by pull down assay. Format: cell-based.

Data set [6] has as its target Baculoviral IAP repeat-containing protein 2 (Homo sapiens) (UniProt Q13490). In words: Binding affinity to c-IAP1 in asynchronously growing human HeLa cells incubated for 30 mins by pull down assay. It is filed as cell-based.
Data set [7] concerns the target E3 ubiquitin-protein ligase RBX1 (Homo sapiens) (UniProt P62877). In words: Binding affinity to RBX1 in asynchronously growing human HeLa cells incubated for 30 mins by pull down assay. Format: cell-based.
Data set [8] concerns HeLa. In words: Inhibition of recombinant APC/C/cdc20 (unknown origin) in metaphase-synchronized human HeLa cells co-expressing GST-tagged UBA1/UBE2C/methylated ubiquitin using RD680-labeled securin as substrate assessed as maximum inhibition at 100 uM measured after 15 mins in presence of ATP by immuno-precipitation method. It is filed as cell-based.
Data set [9] has as its target Anaphase-promoting complex subunit 11 (Homo sapiens) (UniProt Q9NYG5). In words: Binding affinity to APC11 (unknown origin) assessed as binding free energy.
For data set [10], the system named is HeLa. In words: Inhibition of recombinant APC/C/cdc20 (unknown origin) in metaphase-synchronized human HeLa cells co-expressing GST-tagged UBA1/UBE2D1/methylated ubiquitin using RD680-labeled securin as substrate at 100 uM measured after 45 mins in presence of ATP by immuno-precipitation method. Format: cell-based.
Data set [11] deals with HeLa. In words: Inhibition of recombinant APC/C/cdc20 (unknown origin) in metaphase-synchronized human HeLa cells co-expressing GST-tagged UBA1/UBE2C/methylated ubiquitin using RD680-labeled securin as substrate at 100 uM measured after 45 mins in presence of ATP by immuno-precipitation method. It is filed as cell-based.
Data set [12] is described as follows: Drug localization in human HeLa cells assessed as punctate pattern formation at 50 uM incubated for 10 hrs by AF488 dye based analysis. It is filed as ADME, cell-based.
In data set [13] the test system is TERT-RPE1. In words: Effect on time length of mitosis in human RPE-1 cells at 50 uM measured for 10 to 24 hrs by bright field microscopy. Format: functional, cell-based. The note with it: time 10-24 hrs.

Each structure is given as a SMILES string. Calls of active or inactive are those of the source. No cut-off for these calls is given here. Numbered stars: 1 amine (or outer) side, 2 acyl side, 3 side chain; on linkers, the order of the positions; unused ones are H or OH. Bridge positions count the residues as written; N and C are the ends. Square brackets hold non-standard residues; d marks the D form. Peptide text beside a SMILES is read from it. X2 = C[C@@](CCCCC=[*:3])(N[*:1])C(=O)[*:2]; R8 = C=CCCCCCC[C@@](C)(N)C(=O)O; S5 = C=CCCC[C@](C)(N)C(=O)O; Pra = C#CC[C@H](N)C(=O)O

Chain of Anaphase-promoting complex subunit 11 (Homo sapiens) (Q9NYG5 whole entry, one chain of several): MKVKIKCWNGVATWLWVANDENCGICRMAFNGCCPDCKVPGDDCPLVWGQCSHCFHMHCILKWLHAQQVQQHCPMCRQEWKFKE
Chain of E3 ubiquitin-protein ligase Mdm2 (Homo sapiens) (Q00987 whole entry, looked up): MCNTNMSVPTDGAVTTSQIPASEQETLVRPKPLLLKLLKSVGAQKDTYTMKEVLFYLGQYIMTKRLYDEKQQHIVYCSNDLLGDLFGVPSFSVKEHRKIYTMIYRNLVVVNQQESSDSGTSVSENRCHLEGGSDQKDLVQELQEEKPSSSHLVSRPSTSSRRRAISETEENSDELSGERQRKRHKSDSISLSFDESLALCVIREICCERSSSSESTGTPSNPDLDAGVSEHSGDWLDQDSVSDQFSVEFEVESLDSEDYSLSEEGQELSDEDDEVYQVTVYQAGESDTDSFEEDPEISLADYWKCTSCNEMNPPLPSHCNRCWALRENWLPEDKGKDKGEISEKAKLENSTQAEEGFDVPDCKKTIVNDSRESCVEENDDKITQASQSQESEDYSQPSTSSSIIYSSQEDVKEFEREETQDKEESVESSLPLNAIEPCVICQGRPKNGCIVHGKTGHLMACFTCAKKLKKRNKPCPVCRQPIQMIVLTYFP
Chain of E3 ubiquitin-protein ligase RBX1 (Homo sapiens) (P62877 whole entry, looked up): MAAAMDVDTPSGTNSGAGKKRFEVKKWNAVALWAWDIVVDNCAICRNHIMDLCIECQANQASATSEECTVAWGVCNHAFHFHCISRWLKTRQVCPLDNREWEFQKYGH
Chain of Baculoviral IAP repeat-containing protein 2 (Homo sapiens) (Q13490 whole entry): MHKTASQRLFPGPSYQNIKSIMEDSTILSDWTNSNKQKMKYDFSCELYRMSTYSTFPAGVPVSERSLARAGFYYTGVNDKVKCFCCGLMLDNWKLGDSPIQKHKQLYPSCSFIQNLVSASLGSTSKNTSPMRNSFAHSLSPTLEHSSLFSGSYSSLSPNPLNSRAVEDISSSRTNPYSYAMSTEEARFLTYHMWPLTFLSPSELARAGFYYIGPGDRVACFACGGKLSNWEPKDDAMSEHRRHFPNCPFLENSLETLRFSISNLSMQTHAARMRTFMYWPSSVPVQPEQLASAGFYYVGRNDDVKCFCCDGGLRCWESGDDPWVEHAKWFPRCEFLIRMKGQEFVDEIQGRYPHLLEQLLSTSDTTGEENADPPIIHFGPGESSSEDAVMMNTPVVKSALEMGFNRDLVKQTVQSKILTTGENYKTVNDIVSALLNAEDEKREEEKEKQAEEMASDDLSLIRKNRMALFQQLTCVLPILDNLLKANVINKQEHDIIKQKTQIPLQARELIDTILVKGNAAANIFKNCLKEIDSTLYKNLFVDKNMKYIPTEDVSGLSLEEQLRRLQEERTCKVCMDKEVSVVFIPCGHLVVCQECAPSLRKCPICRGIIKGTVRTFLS
Chain of Breast cancer type 1 susceptibility protein (Homo sapiens) (P38398 whole entry, looked up): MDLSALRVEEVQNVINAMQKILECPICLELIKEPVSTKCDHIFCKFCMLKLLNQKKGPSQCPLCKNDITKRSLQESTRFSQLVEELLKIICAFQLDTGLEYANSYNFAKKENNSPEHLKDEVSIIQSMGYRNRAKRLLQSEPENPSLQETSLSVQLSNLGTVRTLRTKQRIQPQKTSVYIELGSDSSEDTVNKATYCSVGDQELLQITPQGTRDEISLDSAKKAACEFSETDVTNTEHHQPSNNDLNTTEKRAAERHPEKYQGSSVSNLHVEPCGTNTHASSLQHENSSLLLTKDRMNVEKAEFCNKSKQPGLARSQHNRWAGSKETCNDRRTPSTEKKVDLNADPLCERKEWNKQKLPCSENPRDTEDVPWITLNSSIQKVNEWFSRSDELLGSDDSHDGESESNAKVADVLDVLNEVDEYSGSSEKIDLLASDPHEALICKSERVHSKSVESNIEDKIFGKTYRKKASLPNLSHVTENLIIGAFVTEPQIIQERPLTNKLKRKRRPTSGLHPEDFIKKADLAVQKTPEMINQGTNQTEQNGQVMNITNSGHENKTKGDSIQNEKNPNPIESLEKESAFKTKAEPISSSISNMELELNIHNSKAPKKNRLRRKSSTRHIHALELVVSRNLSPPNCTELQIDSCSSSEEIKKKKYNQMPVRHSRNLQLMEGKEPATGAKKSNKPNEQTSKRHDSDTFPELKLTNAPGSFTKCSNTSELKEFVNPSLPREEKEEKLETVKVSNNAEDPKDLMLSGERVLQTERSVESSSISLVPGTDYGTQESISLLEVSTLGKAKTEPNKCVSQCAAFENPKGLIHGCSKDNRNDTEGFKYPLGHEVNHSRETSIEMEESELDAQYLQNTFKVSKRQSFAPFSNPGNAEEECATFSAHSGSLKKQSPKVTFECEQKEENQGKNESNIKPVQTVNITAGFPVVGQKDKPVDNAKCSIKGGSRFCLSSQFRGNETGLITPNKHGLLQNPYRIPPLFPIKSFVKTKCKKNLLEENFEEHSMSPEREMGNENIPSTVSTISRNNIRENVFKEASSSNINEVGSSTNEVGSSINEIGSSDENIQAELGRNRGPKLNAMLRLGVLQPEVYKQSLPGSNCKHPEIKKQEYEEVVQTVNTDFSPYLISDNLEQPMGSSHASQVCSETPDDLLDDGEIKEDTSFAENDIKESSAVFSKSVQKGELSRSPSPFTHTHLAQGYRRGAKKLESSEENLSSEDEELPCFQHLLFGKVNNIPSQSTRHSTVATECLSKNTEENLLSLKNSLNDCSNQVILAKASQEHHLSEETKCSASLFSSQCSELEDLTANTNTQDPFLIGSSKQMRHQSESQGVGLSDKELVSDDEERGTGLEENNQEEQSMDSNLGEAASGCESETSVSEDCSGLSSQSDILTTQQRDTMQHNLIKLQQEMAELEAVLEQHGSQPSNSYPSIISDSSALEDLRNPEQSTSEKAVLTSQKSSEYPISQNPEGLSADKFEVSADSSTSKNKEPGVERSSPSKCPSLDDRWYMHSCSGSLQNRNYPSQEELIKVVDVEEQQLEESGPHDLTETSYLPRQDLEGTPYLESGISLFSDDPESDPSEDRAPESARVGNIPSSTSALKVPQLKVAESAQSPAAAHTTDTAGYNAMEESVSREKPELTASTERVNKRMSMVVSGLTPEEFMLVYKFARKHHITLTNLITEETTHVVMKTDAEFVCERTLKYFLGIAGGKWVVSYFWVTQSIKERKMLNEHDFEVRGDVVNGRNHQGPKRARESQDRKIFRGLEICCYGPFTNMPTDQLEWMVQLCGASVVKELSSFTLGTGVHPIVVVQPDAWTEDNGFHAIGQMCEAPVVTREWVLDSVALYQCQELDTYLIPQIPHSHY

For `C#CC[C@H](NC(C)=O)C(=O)N[C@@H](CCCNC(=N)N)C(=O)N[C@H]1CSSC[C@@H](C(=O)N[C@@H](CCCNC(=N)N)C(N)=O)NC(=O)[C@H](Cc2c[nH]c3ccccc23)NC(=O)[C@H](Cc2ccccc2)NC(=O)[C@H]([C@@H](C)O)NC(=O)[C@H](CCCNC(=N)N)NC(=O)[C@@H]2CCCN2C(=O)CNC(=O)[C@H](Cc2c[nH]c3ccccc23)NC(=O)[C@H](Cc2cnc[nH]2)NC1=O` (Ac-[Pra]RCHWGPRTFWCR-NH2; disulfide 3-12), the outcome in data set [1], in data set [5], in data set [6] and in [7] was inactive. For the same compound, the result in data set [2], in data set [3] and in data set [4] was Active.

For `CC(=O)N[C@@H](CCCNC(=N)N)C(=O)N[C@H]1CSSC[C@@H](C(=O)N[C@@H](CCCNC(=N)N)C(N)=O)NC(=O)[C@H](Cc2c[nH]c3ccccc23)NC(=O)[C@H](Cc2ccccc2)NC(=O)[C@H]([C@@H](C)O)NC(=O)[C@H](CCCNC(=N)N)NC(=O)[C@@H]2CCCN2C(=O)CNC(=O)[C@H](Cc2c[nH]c3ccccc23)NC(=O)[C@H](Cc2cnc[nH]2)NC1=O` (Ac-RCHWGPRTFWCR-NH2; disulfide 2-11), the inhibition entry in [8], in data set [10] and in [11] was “Active” in each case. Moreover, in data set [9], the deltaG was -25.6 kcal/mol.

Turning to `CC(=O)N[C@H](C(=O)N[C@@H](Cc1cnc[nH]1)C(=O)N[C@H]1CSSC[C@@H](C(=O)N[C@@H](CCC(N)=O)C(=O)N[C@@H](CCCNC(=N)N)C(=O)N[C@H](C(N)=O)C(C)C)NC(=O)[C@H](CC(N)=O)NC(=O)[C@H](Cc2c[nH]c3ccccc23)NC(=O)[C@H](CCCNC(=N)N)NC(=O)[C@H](Cc2c[nH]c3ccccc23)NC(=O)[C@H]([C@@H](C)O)NC(=O)[C@H](CCC(=O)O)NC(=O)[C@@H]2CCCN2C(=O)[C@H](CC(=O)O)NC(=O)[C@H](CC(=O)O)NC1=O)[C@@H](C)O` (Ac-THCDDPETWRWNCQRV-NH2; disulfide 3-13), the inhibition entry in data set [8], in data set [10] and in [11] was “Active” each time. Further, the deltaG in data set [9] is -29.4 kcal/mol.

`C#CC[C@H](NC(=O)[C@@H]1CCCN1C(=O)[C@H](Cc1c[nH]c2ccccc12)NC(=O)[C@H](CCCNC(=N)N)NC(C)=O)C(=O)N[C@@]1(C)CCC/C=C/CCC[C@@](C)(C(=O)N[C@@H](CCC(N)=O)C(=O)N[C@H](C(=O)N[C@@H](CCCNC(=N)N)C(=O)N[C@@H](CCCNC(=N)N)C(=O)N[C@@H](Cc2c[nH]c3ccccc23)C(N)=O)C(C)C)NC(=O)[C@H](CC(=O)O)NC(=O)[C@H](Cc2c[nH]c3ccccc23)NC(=O)[C@H](CCCCN)NC1=O` (Ac-RWP[Pra][S5]KWD[S5]QVRRW-NH2; staple (E) 5-9): the Drug uptake result in data set [12] is listed as “Active”. Also, in data set [13], the Activity entry was “No effect”. The outcome in data set [2] and in data set [3] was inactive. In addition, the result in [4] was Active.

`CC(=O)N[C@@H](CCCNC(=N)N)C(=O)N[C@@H](Cc1c[nH]c2ccccc12)C(=O)N1CCC[C@H]1C(=O)N[C@@H](CCC(N)=O)C(=O)N[C@@]1(C)CCC/C=C/CCC[C@@](C)(C(=O)N[C@@H](CCC(N)=O)C(=O)N[C@H](C(=O)N[C@@H](CCCNC(=N)N)C(=O)N[C@@H](CCCNC(=N)N)C(=O)N[C@@H](Cc2c[nH]c3ccccc23)C(N)=O)C(C)C)NC(=O)[C@H](CC(=O)O)NC(=O)[C@H](Cc2c[nH]c3ccccc23)NC(=O)[C@H](CCCCN)NC1=O` (Ac-RWPQ[S5]KWD[S5]QVRRW-NH2; staple (E) 5-9): the Activity result in data set [13] is “No effect”. In addition, in [11], the inhibition result is recorded as “Active; Compound Exerted Better Inhibitory Effect Than Tame”.

With `CC(=O)N[C@@H](CCCNC(=N)N)C(=O)N[C@H]1CSSC[C@@H](C(=O)N[C@@H](CCCNC(=N)N)C(N)=O)NC(=O)[C@H](Cc2c[nH]c3ccccc23)NC(=O)[C@H](Cc2ccccc2)NC(=O)[C@H]([C@@H](C)O)NC(=O)[C@H](CCC(=O)O)NC(=O)[C@@H]2CCCN2C(=O)CNC(=O)[C@H](Cc2c[nH]c3ccccc23)NC(=O)[C@H](CO)NC1=O` (Ac-RCSWGPETFWCR-NH2; disulfide 2-11), the deltaG in [9] is -24.2 kcal/mol. The inhibition entry in data set [10] and in data set [11] was “Active” throughout.

As for `CC[C@H](C)[C@@H]1NC(=O)[C@@](C)(NC(=O)[C@H](CCC(N)=O)NC(=O)[C@@H]2CCCN2C(=O)[C@H](Cc2c[nH]c3ccccc23)NC(=O)[C@H](CCCNC(=N)N)NC(C)=O)CCC/C=C/CCC[C@@](C)(C(=O)N[C@@H](CCC(N)=O)C(=O)N[C@H](C(=O)N[C@@H](CCCNC(=N)N)C(=O)N[C@@H](Cc2c[nH]c3ccccc23)C(=O)N[C@@H](Cc2c[nH]c3ccccc23)C(N)=O)C(C)C)NC(=O)[C@H](CC(=O)O)NC(=O)[C@H](CCCCN)NC1=O` (Ac-RWPQ[S5]IKD[S5]QVRWW-NH2; staple (E) 5-9), the Activity result in [13] is “No effect”. Further, in data set [11], the inhibition entry is recorded as “Active; Compound Exerted Better Inhibitory Effect Than Tame”.

For the compound `C#CC[C@H](NC(=O)[C@H](Cc1c[nH]c2ccccc12)NC(=O)[C@H](CCC(=O)O)NC(C)=O)C(=O)N[C@]1(C)CCCCCC/C=C\CCCC[C@@](C)(C(=O)N[C@@H](CCCNC(=N)N)C(=O)N[C@@H](CCCNC(=N)N)C(=O)N[C@@H](C)C(N)=O)NC(=O)[C@H](CCCNC(=N)N)NC(=O)[C@H](CCC(N)=O)NC(=O)[C@H]([C@@H](C)CC)NC(=O)[C@H](CCC(=O)O)NC(=O)[C@H](CCCCN)NC(=O)[C@H]([C@@H](C)CC)NC1=O` (Ac-EW[Pra][R8]IKEIQR[X2]RRA-NH2; staple (Z) 4-11), in data set [12], the Drug uptake result was “Active”.

Turning to `CC(=O)N[C@@H](CCCNC(=N)N)C(=O)N[C@H]1CSSC[C@@H](C(=O)N[C@@H](CCCNC(=N)N)C(N)=O)NC(=O)[C@H](Cc2c[nH]c3ccccc23)NC(=O)[C@H](Cc2ccccc2)NC(=O)[C@H]([C@@H](C)O)NC(=O)[C@H](CCC(=O)O)NC(=O)[C@@H]2CCCN2C(=O)CNC(=O)[C@H](Cc2c[nH]c3ccccc23)NC(=O)[C@H](Cc2cnc[nH]2)NC1=O` (Ac-RCHWGPETFWCR-NH2; disulfide 2-11), the deltaG in [9] is -21.1 kcal/mol. The inhibition result in data set [10] and in data set [11] was “Active” in each case.

Turning to `CC[C@H](C)[C@@H]1NC(=O)[C@H](CCC(=O)O)NC(=O)[C@H](CC(C)C)NC(=O)[C@@H](CCCCN)NC(=O)[C@](C)(NC(=O)[C@H](Cc2c[nH]c3ccccc23)NC(=O)[C@H](Cc2c[nH]c3ccccc23)NC(=O)[C@H](CCC(=O)O)NC(C)=O)CCCCCC/C=C\CCC[C@@](C)(C(=O)N[C@@H](CCCNC(=N)N)C(=O)N[C@@H](CCCNC(=N)N)C(=O)N[C@@H](C)C(N)=O)NC(=O)[C@H](CCCNC(=N)N)NC(=O)[C@H](CCC(N)=O)NC1=O`, the Activity entry in data set [13] was “No effect”. For the same compound, the inhibition result in [11] is “Active; Compound Exerted Better Inhibitory Effect Than Tame”.
